Reference: patent US20250008959A1, “HERBICIDES AND USE THEREOF” (Projini Agchem LTD, priority 2021, published 2025)

Key:
[1] = test system: Arabidopsis thaliana; test: Root elongation in plates (in planta root elongation assay); type: in vivo; conditions: 168 h, A. thaliana on MS medium plates, 7 days, read-out: Root-growth inhibition %
[2] = test system: Lolium rigidum; test: Pre-emergence assay in pots; type: in vivo; conditions: pots sprayed with 2 ml, 5 mM, monitored 21 days
Experimental: (§1) 7×7 cm pots were prepared with 20% soil and 80% sand. Trifolium alexandrium (16 seeds), Lolium rigidum (25 seeds), Solanum nigrum (25 seeds), Amaranthus palmeri (40 seeds) or Sinapis arvensis (12 seeds) were sowed and 2 cm of strained sand was used to cover the seeds. The pots were placed in the growth room under a lighting regime of 16 hours of light and 8 hours in the dark at 23° C. The day after (except for the Solanum and Amaranthus 4-5 days after), the pots were sprayed in a chemical hood at a 45° angle with 2 ml spray solution containing 1:10 acetone or phosphate buffer dissolved active ingredient in tap water to a final concentration of 5 mM. Every 2-3 days the pots were irrigated with tap water.
(§2) Pre-emergence herbicidal activity was determined by monitoring plant growth in pots. Molecules were dissolved at the indicated concentrations below and volume of 2 ml was sprayed onto the soil, and plant growth was monitored for 21 days.

[3] = test system: Sinapis arvensis; test: Pre-emergence assay in pots; type: in vivo; conditions: pots sprayed with 2 ml, 5 mM, monitored 21 days
Experimental: as §1, §2

[4] = target: T1, OASS-SAT complex (AtOASS with SAT-derived peptide) (Arabidopsis thaliana, UniProt P47998); test: Fluorescence polarization (FP) competition with FITC-labeled SAT-derived peptide bound to OASS; type: binding; conditions: competition with FITC-SAT peptide 200 nM, OASS 2.2 μM
T1 construct: GST (N, cleaved yes); made in house; host or cells: E. coli Rosetta (DE3)
T1 sequence (P47998 whole entry, one chain of several): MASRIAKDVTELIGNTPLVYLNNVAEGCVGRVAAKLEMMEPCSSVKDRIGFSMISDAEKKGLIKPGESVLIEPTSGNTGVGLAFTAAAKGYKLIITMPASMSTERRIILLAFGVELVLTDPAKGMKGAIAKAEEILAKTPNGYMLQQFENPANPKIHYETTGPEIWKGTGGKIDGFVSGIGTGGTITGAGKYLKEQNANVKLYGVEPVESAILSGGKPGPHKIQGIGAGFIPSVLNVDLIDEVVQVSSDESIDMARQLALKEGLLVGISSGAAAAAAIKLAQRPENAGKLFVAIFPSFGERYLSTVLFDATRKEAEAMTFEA

SMILES: O=C(O)c1ccccc1-c1ocnc1C(=O)Nc1nc(-c2ccc(Cl)cc2Cl)cs1 [PJL-117]
- inhibition at 50 µM [1]: 100%
- Pre-emergence assay Germination inhibition on (%) [2]: 0%
- Pre-emergence assay Growth inhibition on (%) [2]: 60%
- Pre-emergence assay Germination inhibition on (%) [3]: 90%
- Pre-emergence assay Growth inhibition on (%) [3]: 80%
- FP % inhibition [4]: 10%
- IC50 ([4]; single site inhibition model): 248 µM
